Measurements as given in patent US12539273B2, “External nano liniment for gout and preparation method thereof” (priority 2021, dated 2026).
Like-named read-outs stand apart in the source and are kept apart here.

What was measured:
patients with gout = assay: Preliminary human trial of preparation: crystal dissolution of gout crystals; assay type: in vivo
Experimental: The prepared nano liniment was applied to some patients with gout on trial. The gout treatment effect was obvious. The local application dosage was far below the dosage of the same oral medicine. The total dosage was safe.
Method of application: the nano liniment was applied to the gout parts (most foot joints, some hand joints or other parts) twice a day (every morning and evening), 1 ml of the corresponding nano liniment was applied every time, the gout (crystal) parts were photographed at different points in time before and after the nano liniment was applied, and the blood uric acid concentration (i.e. the uric acid value under fasting) of some patients with obvious crystal dissolution and lump elimination was also determined as a reference.

[1] = cited from earlier work; for cardiovascular and cerebrovascular and all-cause mortality: oral administration, statistic average period of 1 year

Question: For `OCc1ccc(O[C@@H]2O[C@H](CO)[C@@H](O)[C@H](O)[C@H]2O)cc1` [4-hydroxymethyl phenyl-beta-D-glucopyranoside], which analgesic effect (patients with gout; finding of the study, gout) is on record?
Answer: good analgesic effect

Question: What about the gout treatment effect (patients with gout; patients with gout on trial) of the same molecule?
Answer: good treatment effect on gout

Question: With `Oc1ncnc2[nH]ncc12` [Allopurinol] as the molecule, how does the “cardiovascular and cerebrovascular and all-cause mortality” value [1] read?
Answer: mortality reaches up to 3.3%).

Question: And the “cardiovascular and cerebrovascular and all-cause mortality” value ([1]; listed as allopurinol)?
Answer: 3.3%

Question: Which Side effects ([1]; oral tablet, marketed gout medicine) does the source give for `N#Cc1cc(-c2n[nH]c(-c3ccncc3)n2)ccn1` [Topiroxostat] here?
Answer: effect on the liver and bile.

Question: Which “cardiovascular and cerebrovascular and all-cause mortality” value [1] does the source give for `Cc1nc(-c2ccc(OCC(C)C)c(C#N)c2)sc1C(=O)O` [Febuxostat] here?
Answer: reaches up to 4.1%).

Question: And the “cardiovascular and cerebrovascular and all-cause mortality” value ([1]; listed as febuxostat)?
Answer: 4.1%
